The subject of assay [1] is PI3-K in BT20 cells (phosphorylation of AKT at serine 473). In words: PI3-Kα Cellular Assay (AKT Ser473 phosphorylation ELISA in BT20 cells). The format is cell-based, human. The conditions noted are these: Homo sapiens, BT-20, pAKT Ser473 ELISA, 1 hour incubation. The method, then:
Compounds of the present invention were evaluated for potency against PI3-K using a cellular assay as follows.
Healthy growing human breast cancer cells BT20 (PI3K mutated) are used for the assay. BT20 cells are grown in 10% FBS+GLN (1:100)+PS (1:100)+1 mM Sodium Pyruvate+0.1 mM Sodium Bicarbonate+Non-Essential Amino Acids Solution (1:100) MEM medium (MEM+all). […] The cells are re-suspended in 10% FBS MEM all and are centrifuged down at 1400 rpm for 5 minutes. The cells are re-suspended in 0.5% FBS MEM all and are counted on a cell counter. The cells are seeded at 25,000 cells/well in volume of 100 μL/well in 0.5% FBS MEM all in a 96 well flat-bottom plate. The negative control wells receive only 100 μL of 0.5% FBS MEM all medium without cells. The plate is incubated overnight in a cell culture incubator with 5% CO2 at 37° C.
On day 2, testing compounds are prepared in 0.5% FBS MEM all medium and serially diluted at 1:3 for 11 test concentrations. Each concentration of the compounds is tested in duplicate. The compound solutions are added at 25 μL/well to the corresponded wells in cell plate, and 25 μL/well of the vehicle (0.5% DMSO in 0.5% FBS MEM all) is added to the negative control wells (no cells) and the positive control wells (cells without compounds). The plate is incubated for 1 hour in a cell culture incubator with 5% CO2 at 37° C. After 1 hour of incubation, the medium is removed, 100 μL/well of cell lysis buffer is added into the cell plate, and shake for 15 minutes at room temperature. […] After 1 hour, empty the contents of the wells, wash the plate 4 times with the wash buffer, and add 100 μL of TMB substrate solution (catalog #T0440, Sigma) into each well, and incubate with gentle shaking at room temperature for […]. After 15 minutes of color development, add 100 μL of stop solution (1N hydrochloric acid) to each well, and read the plate at 450 nm on ELISA plate reader.
For orientation: An ELISA detects its analyte on a solid surface through an enzyme-linked reagent.

For assay [2], the target named is PI3-Kα (Mus musculus (Mouse), UniProt P42337). The experiment in a line: PI3-Kα Biochemical Assay (fluorescence polarization kinase assay). The protocol: Compounds of the present invention were evaluated for potency against PI3-Kα using an in vitro kinase assay. PI3-Kα activity is measured in vitro by determining the level of phosphorylation of the substrate PI(4,5)P2. The formation of product PI(3,4,5)P3 is monitored by binding to the Grip1 PH domain in a ligand displacement fluorescence polarization (FP) assay, in which the TAMRA-labeled PI(3,4,5)P3 complexed with Grip1 PH domain is displaced by PI(3,4,5)P3 formed in the PI3-Kα reaction resulting in a decrease in FP signal. Mouse PI3-Kα P110 and P85 subunits were co-expressed in insect cells and co-purified to homogeneity. PI(4,5)P2 were obtained from Cayman. TAMRA-labeled PI(3,4,5)P3 were from Echelon, Grip1 PH domain from Dundee and other reagents were from Sigma.
PI3-Kα, sequence (P42337 whole entry, the tested form may be a part): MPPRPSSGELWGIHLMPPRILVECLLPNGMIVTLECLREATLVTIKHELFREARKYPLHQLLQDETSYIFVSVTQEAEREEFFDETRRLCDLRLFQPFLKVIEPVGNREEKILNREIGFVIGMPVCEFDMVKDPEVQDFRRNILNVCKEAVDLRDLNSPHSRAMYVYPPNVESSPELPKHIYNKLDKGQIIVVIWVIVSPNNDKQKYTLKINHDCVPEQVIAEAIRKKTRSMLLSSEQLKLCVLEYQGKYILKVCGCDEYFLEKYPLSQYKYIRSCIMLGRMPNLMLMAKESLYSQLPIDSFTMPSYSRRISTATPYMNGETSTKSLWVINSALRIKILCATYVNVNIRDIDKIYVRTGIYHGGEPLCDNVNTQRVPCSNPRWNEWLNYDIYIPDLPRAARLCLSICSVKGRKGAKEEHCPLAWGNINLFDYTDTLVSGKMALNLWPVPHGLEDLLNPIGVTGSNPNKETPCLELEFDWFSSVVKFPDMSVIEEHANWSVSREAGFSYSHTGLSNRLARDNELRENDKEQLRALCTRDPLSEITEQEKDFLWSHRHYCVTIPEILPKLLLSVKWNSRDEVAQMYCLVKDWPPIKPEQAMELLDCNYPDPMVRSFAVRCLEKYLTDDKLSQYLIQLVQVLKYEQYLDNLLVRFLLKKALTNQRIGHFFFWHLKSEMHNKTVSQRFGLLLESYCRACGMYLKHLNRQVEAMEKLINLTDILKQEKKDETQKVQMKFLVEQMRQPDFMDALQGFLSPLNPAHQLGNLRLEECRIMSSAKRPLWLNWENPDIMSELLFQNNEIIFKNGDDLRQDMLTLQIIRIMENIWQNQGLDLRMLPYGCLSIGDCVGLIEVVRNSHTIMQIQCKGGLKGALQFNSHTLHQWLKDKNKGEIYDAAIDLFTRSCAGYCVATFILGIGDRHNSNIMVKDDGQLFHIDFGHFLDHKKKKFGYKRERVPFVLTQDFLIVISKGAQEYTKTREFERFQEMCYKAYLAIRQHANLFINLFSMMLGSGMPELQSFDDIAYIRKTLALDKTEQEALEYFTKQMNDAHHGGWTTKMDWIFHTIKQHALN
PI3-Kα, sequence (P26450 whole entry partner, the tested form may be a part): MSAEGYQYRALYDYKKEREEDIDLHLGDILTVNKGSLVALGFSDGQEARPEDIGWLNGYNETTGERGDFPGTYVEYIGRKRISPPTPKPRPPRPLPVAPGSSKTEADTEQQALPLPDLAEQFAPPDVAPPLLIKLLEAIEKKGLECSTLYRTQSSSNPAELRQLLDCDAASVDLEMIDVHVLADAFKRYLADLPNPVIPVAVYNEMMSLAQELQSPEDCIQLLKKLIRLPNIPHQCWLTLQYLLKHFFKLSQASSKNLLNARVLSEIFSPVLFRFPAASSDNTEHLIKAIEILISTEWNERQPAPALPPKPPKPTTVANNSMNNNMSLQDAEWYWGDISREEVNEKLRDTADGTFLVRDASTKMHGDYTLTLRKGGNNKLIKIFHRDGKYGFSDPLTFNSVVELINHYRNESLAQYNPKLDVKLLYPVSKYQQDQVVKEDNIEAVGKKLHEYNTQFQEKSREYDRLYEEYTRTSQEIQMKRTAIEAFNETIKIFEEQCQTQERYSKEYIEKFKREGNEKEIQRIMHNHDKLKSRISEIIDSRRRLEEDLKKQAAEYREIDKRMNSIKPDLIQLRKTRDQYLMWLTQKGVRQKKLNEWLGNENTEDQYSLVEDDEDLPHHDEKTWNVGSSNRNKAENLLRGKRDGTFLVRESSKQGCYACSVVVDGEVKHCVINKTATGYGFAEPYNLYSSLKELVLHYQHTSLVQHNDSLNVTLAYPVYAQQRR
All assays were performed in a Corning solid black 96-well half area plate using LJL Analyst (Molecular Devices) at room temperature. The assay buffer contained 50 mM HEPES, pH 7.4, 150 mM NaCl, 5 mM DTT, and 0.05% CHAPS. Dry powder PI(4,5)P2 was dissolved in 50 mM TRIS, pH 8 to make 1 mM stock solution. The PI(4,5)P2 stock solution was then diluted in the assay buffer to 60 μM, and sonicated for 30 sec before use. To the assay plate, the following reagents were added in sequence: 10 μL of 60 μM PI(4,5)P2, 5 μL of 4 nM PI3-Kα, 2 μL of compound in 25% DMSO, 3 μL of mixture containing 200 μM ATP and 33 mM MgCl2. The final volume for the reaction was 20 μL. The reaction mixture was incubated at room temperature for 35 min. The reaction was then stopped by 20 μL of 20 mM EDTA. […] The FP signal was allowed to develop for 40 min before reading on a LJL analyst at excitation 535 nm and emission 580 nm.
The percentage of inhibition was calculated based on the following equation % inhibition=[1−(FPcompound−FPmax)/(FPmin−FPmax)]×100, where FPcompound is the FP reading at a given compound concentration, FPmin is the FP signal of the PI3-Kα reaction in the absence of a compound, and FPmax is the background FP signal in the absence of PI3-Kα and a compound. The IC50 was determined by fitting the FP signal vs. compound concentration to a sigmoidal dose response equation using GraphPad Prism curve fitting program.

Structures are written as SMILES.

Results on 22 compounds are retold here after patent US8633204B2 (Pfizer Inc., priority 2006, dated 2014).

As usually defined, the IC50 is the concentration at which inhibition is half-maximal. A low value points to inhibition by little substance. By inhibition is commonly meant the change of the read-out against control, counted positive when it falls.

For the compound `CNc1nc(C)c2cc(-c3cc(CN)ccc3F)c(=O)n(C3CCCC3)c2n1` [Compound 104, 6-(5-(Aminomethyl)-2-fluorophenyl)-8-cyclopentyl-4-methyl-2-(methylamino)pyrido[2,3-d]pyrimidin-7(8H)-one], in assay [1], the IC50 was determined as 10000 nM. The same compound displayed an inhibition at 10 µM in assay [2] of 43%.

For the compound `CNc1nc(C)c2cc(-c3cnn(CCO)c3)c(=O)n(C3CCCC3)c2n1` [Compound 105, 8-Cyclopentyl-6-(1-(2-hydroxyethyl)-1H-pyrazol-4-yl)-4-methyl-2-(methylamino)pyrido[2,3-d]pyrimidin-7(8H)-one], the IC50 in assay [1] was determined as 234 nM; in assay [2] it was 24 nM.

For `Cc1nc(N)nc2c1cc(-c1cnn(CCO)c1)c(=O)n2C1CCCC1` [Compound 106, 2-Amino-8-cyclopentyl-6-(1-(2-hydroxyethyl)-1H-pyrazol-4-yl)-4-methylpyrido[2,3-d]pyrimidin-7(8H)-one], the IC50 in assay [1] was found to be 495 nM; in assay [2] it was 45 nM.

For `CNc1nc(C)c2cc(-c3cncnc3)c(=O)n(C3CCCC3)c2n1` [Compound 107, 8-Cyclopentyl-4-methyl-2-(methylamino)-6-(pyrimidin-5-yl)pyrido[2,3-d]pyrimidin-7(8H)-one], the IC50 in assay [1] was 305 nM; in assay [2], 23 nM.

Compound `CNc1nc(C)c2cc(-c3ccc(O)c(OC)c3)c(=O)n(C3CCCC3)c2n1` [Compound 108, 8-cyclopentyl-6-(4-hydroxy-3-methoxyphenyl)-4-methyl-2-(methylamino)pyrido[2,3-d]pyrimidin-7(8H)-one] registered an IC50 in assay [1] of 3.82 nM. In assay [2], this compound had a concentration for half-maximal inhibition (IC50) of 1.57 nM and an inhibition at 10 µM of 99%.

For the compound `CNc1nc(C)c2cc(-c3ccc(OC)nc3)c(=O)n(C3CCC3)c2n1` [Compound 109, 8-Cyclobutyl-6-(6-methoxypyridin-3-yl)-4-methyl-2-(methylamino)pyrido[2,3-d]pyrimidin-7(8H)-one], the IC50 in assay [1] was 58.4 nM. In assay [2], the IC50 was 6.3 nM and the inhibition at 10 µM was 99%.

As for `C=CCn1c(=O)c(-c2ccc(OC)nc2)cc2c(C)nc(NC)nc21` [Compound 110, 8-allyl-6-(6-methoxypyridin-3-yl)-4-methyl-2-(methylamino)pyrido[2,3-d]pyrimidin-7(8H)-one], the half-maximal inhibitory concentration (IC50) in assay [1] was found to be 106 nM; in assay [2], 17 nM.

As for `Cc1nc(N)nc2c1cc(-c1ccc(Cl)nc1)c(=O)n2C1CCCC1` [Compound 112, 2-amino-6-(6-chloropyridin-3-yl)-8-cyclopentyl-4-methylpyrido[2,3-d]pyrimidin-7(8H)-one], the IC50 stood at 74.2 nM in assay [1] and 39.1 nM in assay [2].

For `CNc1nc(C)c2cc(-c3ccc(OC)nc3)c(=O)n(C(C)C)c2n1` [Compound 113, 8-Isopropyl-6-(6-methoxypyridin-3-yl)-4-methyl-2-(methylamino)pyrido[2,3-c]pyrimidin-7(8H)-one], the half-inhibitory concentration (IC50) came to 95.2 nM in assay [1] and 21 nM in assay [2].

Take `Cc1nc(NCC(C)(C)O)nc2c1cc(-c1cccc(O)c1)c(=O)n2C1CCCC1` [Compound 114, 8-Cyclopentyl-2-(2-hydroxy-2-methylpropylamino)-6-(3-hydroxyphenyl)-4-methylpyrido[2,3-d]-pyrimidin-7(8H)-one]: the figures for the IC50 in assay [1] and in assay [2] were 1180 nM and 110 nM, respectively.

For `CNc1nc(C)c2cc(-c3cnc4[nH]ccc4c3)c(=O)n(C3CCCC3)c2n1` [Compound 115, 8-cyclopentyl-4-methyl-2-(methylamino)-6-(1H-pyrrolo[2,3-b]pyridin-5-yl)pyrido[2,3-d]pyrimidin-7(8H)-one], the IC50 in assay [1] turned out to be 3.82 nM; in assay [2] it was 0.75 nM.

On to `COc1ccc(-c2cc3c(C)nc(NCC(C)(C)O)nc3n(C3CCCC3)c2=O)cn1` [Compound 116, 8-Cyclopentyl-2-(2-hydroxy-2-methylpropylamino)-6-(6-methoxypyridin-34)-4-methylpyrido[2,3-d]pyrimidin-7(8H)-one], for which the half-maximal inhibitory concentration (IC50) was determined as 5750 nM in assay [1] and 830 nM in assay [2].

For the compound `CCNc1nc(C)c2cc(CCC(=O)N(CC)CC)c(=O)n(C3CCCC3)c2n1` [Compound 117, 3-[8-cyclopentyl-2-(ethylamino)-methyl-7-oxo-7,8-dihydropyrido[2,3-d]pyrimidin-6-yl]-N,N-diethylpropanamide], the midpoint of inhibition in assay [1], the IC50, lay at 10000 nM. In assay [2], this compound registered an inhibition at 10 µM of 32%.

On to `CCNc1nc(C)c2cc(CCC(=O)Nc3ncc[nH]3)c(=O)n(C3CCCC3)c2n1` [Compound 119], for which the half-maximal inhibitory concentration (IC50) was determined as 5710 nM in assay [1] and 310 nM in assay [2].

With `CNc1nc(C)c2cc(/C=C/O)c(=O)n(C3CCCC3)c2n1` [Compound 120, (E)-8-cyclopentyl-6-(2-hydroxyvinyl)-4-methyl-2-(methylamino)pyrido[2,3-d]pyrimidin-7(8H)-one], the IC50 in assay [1] was found to be 896 nM; in assay [2], 42 nM.

On to `CCNc1nc(C)c2cc(CCC(=O)N(C)C)c(=O)n(C3CCCC3)c2n1` [Compound 121, 3-(8-Cyclopentyl-2-(ethylamino)-4-methyl-7-oxo-7,8-dihydropyrido[2,3-d]pyrimidin-6-yl)-N,N-dimethylpropanamide], for which, in assay [1], the half-maximal inhibitory concentration (IC50) came out at 10000 nM. The compound further registered an inhibition at 50 µM in assay [2] (at 50 μM) of 27%.

Take `CNc1nc(C)c2cc(C(N)=O)c(=O)n(C3CCCC3)c2n1` [Compound 123, 8-Cyclopentyl-4-methyl-2-(methylamino)-7-oxo-7,8-dihydropyrido[2,3-d]pyrimidine-6-carboxamide]: the half-maximal inhibitory concentration (IC50) stood at 650 nM in assay [1] and 68 nM in assay [2].

Consider `CNc1nc(C)c2cc(-c3cn[nH]c3)c(=O)n(C3CCCC3)c2n1` [Compound 124, 8-cyclopentyl-4-methyl-2-(methylamino)-6-(1H-pyrazol-4-yl)pyrido[2,3-d]pyrimidin-7(8H)-one], for which the IC50 in assay [1] turned out to be 2.58 nM; in assay [2], 8 nM.

As for `COc1ncccc1-c1cc2c(C)nc(N)nc2n(C2CCCC2)c1=O` [Compound 126], the IC50 came to 5480 nM in assay [1] and 856 nM in assay [2].

Regarding `Cc1nc(N)nc2c1cc(-c1cnc3[nH]ccc3c1)c(=O)n2C1CCCC1` [Compound 127, 2-amino-8-cyclopentyl-4-methyl-6-(1H-pyrrolo[2,3-b]pyridin-5-yl)pyrido[2,3-d]pyrimidin-7(8H)-one], the IC50 in assay [1] turned out to be 2.76 nM; in assay [2], 0.48 nM.

With `CNc1nc(C)c2cc(-c3cccnc3OC)c(=O)n(C3CCCC3)c2n1` [Compound 128, 8-cyclopentyl-6-(2-methoxypyridin-3-yl)-4-methyl-2-(methylamino)pyrido[2,3-d]pyrimidin-7(8H)-one], the half-maximal inhibitory concentration (IC50) in assay [1] amounted to 3530 nM; in assay [2], 275 nM.

Turning to `CCNc1nc(C)c2cc(CCCO)c(=O)n(C3CCCC3)c2n1` [Compound 129, 8-Cyclopentyl-2-(ethylamino)-6-(3-hydroxypropyl)-4-methylpyrido[2,3-d]pyrimidin-7(8H)-one], the IC50 in assay [1] turned out to be 2750 nM; in assay [2] it was 4 nM.
